This is an account of results in article PMC7830758, “Revisiting the Rate-Limiting Step of the ANS–Protein Binding at the Protein Surface and Inside the Hydrophobic Cavity” (Molecules, 2021).

Molecules are shown by their SMILES.

The target in assay [1] is T1, bovine serum albumin (BSA) (Bos taurus, UniProt P02769).
T1 construct: gene ALB
Put plainly: ANS fluorescence titrated with protein, MCR-ALS scores, one-site fit. The class given is binding. Conditions: read-out: K (converted).

In a further assay the target is T2, lysozyme (Gallus gallus, UniProt P00698).
T2 construct: gene LYZ
The description is as above. Format: binding. The settings on record: read-out: K (converted).

T2 sequence (P00698 19-147): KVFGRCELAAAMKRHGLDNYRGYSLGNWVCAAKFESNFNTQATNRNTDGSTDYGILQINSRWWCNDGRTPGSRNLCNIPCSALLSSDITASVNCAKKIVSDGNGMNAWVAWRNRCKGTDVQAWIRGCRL
T1 sequence (P02769 25-607): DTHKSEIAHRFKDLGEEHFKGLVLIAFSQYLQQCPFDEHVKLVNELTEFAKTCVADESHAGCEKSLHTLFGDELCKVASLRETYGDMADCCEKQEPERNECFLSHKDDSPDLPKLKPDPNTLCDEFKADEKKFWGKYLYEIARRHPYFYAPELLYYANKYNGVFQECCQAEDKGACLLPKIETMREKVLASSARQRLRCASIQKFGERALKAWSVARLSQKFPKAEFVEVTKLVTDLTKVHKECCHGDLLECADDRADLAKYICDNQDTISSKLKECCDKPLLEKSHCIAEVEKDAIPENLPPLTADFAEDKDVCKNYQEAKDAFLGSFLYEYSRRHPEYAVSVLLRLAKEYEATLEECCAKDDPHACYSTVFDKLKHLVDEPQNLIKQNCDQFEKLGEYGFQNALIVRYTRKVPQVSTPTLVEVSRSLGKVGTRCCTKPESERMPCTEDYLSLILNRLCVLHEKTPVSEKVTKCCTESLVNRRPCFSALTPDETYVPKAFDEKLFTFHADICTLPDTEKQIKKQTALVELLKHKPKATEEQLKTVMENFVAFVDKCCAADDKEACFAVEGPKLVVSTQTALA

Regarding `O=S(=O)(O)c1cccc2cccc(Nc3ccccc3)c12` [8-Anilino-1-naphthalenesulfonic acid], the results for the Kd (in assay [1]; at lysozyme) were 1.06 µM and 172 µM, respectively.
